Data set [1] relates to xenograft models of human non-small cell lung cancer (NSCLC), colon cancer, breast cancer, melanoma, and glioblastoma. Particulars: including models resistant to taxanes or other microtubule-active compounds; cited from earlier work.
A short description of another data set: Solubility of the salt. The data set is classed as physicochemical.

With `CNCCCOc1cc(F)c(-c2c(Cl)nc3ncnn3c2N[C@@H](C)C(F)(F)F)c(F)c1` [Compound Ia, 5-chloro-6-{2,6-difluoro-4-[3-(methylamino)propoxy]phenyl}-N-[(1S)-2,2,2-trifluoro-1-methylethyl][1,2,4]triazolo[1,5-a]pyrimidin-7-amine], the antitumor activity entry in data set [1] is recorded as “broad antitumor activity”.

As for `CNCCCOc1cc(F)c(-c2c(Cl)nc3ncnn3c2N[C@@H](C)C(F)(F)F)c(F)c1.O=C(O)CCC(=O)O` [succinate dihydrate salt of Compound Ia], the solubility entry in “Solubility of the salt” was “reasonable solubility”.

(Values after patent US20070149552A1, “Lyophilized compositions of a triazolopyrimidine compound” (Wyeth, priority 2005, published 2007).)
